Data on 24 molecules can be found in patent publication US7674819B2 (Warner-Lambert Company LLC, priority 2005, dated 2010).

The first experiment deals with T1, hAR (Homo sapiens, UniProt P10275).
T1 sequence (P10275 1-920): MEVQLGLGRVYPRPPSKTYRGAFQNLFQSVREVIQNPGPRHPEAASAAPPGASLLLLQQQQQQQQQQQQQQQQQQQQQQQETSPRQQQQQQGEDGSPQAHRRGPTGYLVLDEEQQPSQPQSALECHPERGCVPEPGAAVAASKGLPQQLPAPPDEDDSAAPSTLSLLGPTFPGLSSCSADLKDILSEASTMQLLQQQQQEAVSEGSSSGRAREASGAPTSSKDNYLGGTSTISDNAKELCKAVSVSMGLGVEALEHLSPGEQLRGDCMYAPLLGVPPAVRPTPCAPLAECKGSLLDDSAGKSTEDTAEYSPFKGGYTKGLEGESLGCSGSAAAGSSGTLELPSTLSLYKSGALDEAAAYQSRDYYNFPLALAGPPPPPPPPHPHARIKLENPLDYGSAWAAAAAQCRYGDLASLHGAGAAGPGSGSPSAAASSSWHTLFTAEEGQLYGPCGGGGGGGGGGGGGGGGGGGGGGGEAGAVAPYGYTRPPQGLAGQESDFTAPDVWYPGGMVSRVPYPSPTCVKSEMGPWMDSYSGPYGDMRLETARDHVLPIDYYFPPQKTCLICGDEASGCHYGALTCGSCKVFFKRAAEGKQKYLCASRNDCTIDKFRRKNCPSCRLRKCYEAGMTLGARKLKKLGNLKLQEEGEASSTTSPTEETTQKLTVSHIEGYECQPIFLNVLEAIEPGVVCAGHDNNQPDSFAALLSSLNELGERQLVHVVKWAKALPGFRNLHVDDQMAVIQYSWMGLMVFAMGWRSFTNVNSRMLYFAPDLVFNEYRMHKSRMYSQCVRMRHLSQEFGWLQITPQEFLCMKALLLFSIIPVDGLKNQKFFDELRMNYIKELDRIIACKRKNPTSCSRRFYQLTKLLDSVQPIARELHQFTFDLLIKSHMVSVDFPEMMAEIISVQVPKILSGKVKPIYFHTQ
Briefly: Competitive binding of 3H-DHT to baculovirus/Sf9 generated hAR extracts. The note with it: IC50, concentration at which one half of maximum binding of 1 nM 3H-DHT to hAR is inhibited; one hour at 4° C.; mean of multiple tests. The protocol:
The description below describes how the assay was carried out.
Competitive binding analysis was performed on baculovirus/Sf9 generated hAR extracts in the presence or absence of different concentrations of test agent and a fixed concentration of ^3H-dihydrotestosterone (^3H-DHT) as tracer. This binding assay method is a modification of a protocol previously described (Liao S., et. al. J. Steroid Biochem. 20:11-17 1984). Briefly, progressively decreasing concentrations of compounds are incubated in the presence of hAR extract (Chang et al. P.N.A.S. Vol. 89, pp. […], 1992), hydroxylapatite, and 1 nM^3H-DHT for one hour at 4° C. Subsequently, the binding reactions are washed three times to completely remove excess unbound ^3H-DHT. hAR bound ^3H-DHT levels are determined in the presence of compounds (i.e. competitive binding) and compared to levels bound when no competitor is present (i.e. maximum binding). Compound binding affinity to the hAR is expressed as the concentration of compound at which one half of the maximum binding is inhibited.
`CCC(CC)CN1CC(C)(C)C(Oc2ccc(C#N)c(C(F)(F)F)c2)C1=O` (stereo not drawn) [Example 33, 4-[1-(2-Ethyl-butyl)-4,4-dimethyl-2-oxo-pyrrolidin-3-yloxy]-2-trifluoromethyl-benzonitrile]: the IC50 (commonly the concentration at which inhibition is half-maximal) amounted to 478 nM.
Same read-out and setting: with `CC(c1nnc(-c2ccccc2)o1)N1CC(C)(C)C(Oc2ccc(C#N)c(C(F)(F)F)c2)C1=O` (stereo not drawn) [Example 128, 4-[4,4-Dimethyl-2-oxo-1-[1-(5-phenyl-[1,3,4]oxadiazol-2-yl)-ethyl]-pyrrolidin-3-yloxy]-2-trifluoromethyl-benzonitrile] the figure was 82 nM.
Turning to `CC(c1nnc(-c2ccc(O)cc2O)o1)N1CC(C)(C)C(Oc2ccc(C#N)c(C(F)(F)F)c2)C1=O` (stereo not drawn) [Example 132, 4-(1-{1-[5-(2,4-dihydroxy-phenyl)-[1,3,4]oxadiazol-2-yl]-ethyl}-4,4-dimethyl-2-oxo-pyrrolidin-3-yloxy)-2-trifluoromethyl-benzonitrile], the IC50 is 52 nM.
For `COc1cccc(-c2nnc(C(C)N3CC(C)(C)C(Oc4ccc(C#N)c(C(F)(F)F)c4)C3=O)o2)c1` (stereo not drawn) [Example 134, 4-(1-{1-[5-(3-methoxy-phenyl)-[1,3,4]oxadiazol-2-yl]-ethyl}-4,4-dimethyl-2-oxo-pyrrolidin-3-yloxy)-2-trifluoromethyl-benzonitrile], the concentration for half-maximal inhibition (IC50) worked out at 76 nM.
On the same count and under the same terms, the value for `Cc1ccc(-c2nnc(C(C)N3CC(C)(C)C(Oc4ccc(C#N)c(C(F)(F)F)c4)C3=O)o2)cc1` (stereo not drawn) [Example 129, 4-[4,4-Dimethyl-2-oxo-1-[1-(5-p-tolyl-[1,3,4]oxadiazol-2-yl)-ethyl]-pyrrolidin-3-yloxy]-2-trifluoromethyl-benzonitrile] was 63 nM.

The same experiment, now with this note: concentration at which one half of maximum binding of 1 nM 3H-DHT to hAR is inhibited; one hour at 4° C.; mean of multiple tests; read-out: IC50.
In the case of `CC1(C)CN(Cc2nc(-c3ccncc3)no2)C(=O)C1Oc1ccc(C#N)c(C(F)(F)F)c1` (stereo not drawn) [Example 49, 4-[4,4-Dimethyl-2-oxo-1-(3-pyridin-4-yl-[1,2,4]oxadiazol-5-ylmethyl)-pyrrolidin-3-yloxy]-2-trifluoromethyl-benzonitrile], the IC50 worked out at 214 nM.
On to `COC(=O)c1ccc(S(=O)(=O)N2CC(C)(C)C(Oc3ccc(C#N)c(C(F)(F)F)c3)C2=O)o1` (stereo not drawn) [Example 100A, 5-[3-(4-Cyano-3-trifluoromethyl-phenoxy)-4,4-dimethyl-2-oxo-pyrrolidine-1-sulfonyl]-furan-2-carboxylic acid methyl ester], for which the IC50 is 242 nM.
Same read-out and setting: the value for `CC1(C)CN(C(=O)c2ccccc2)C(=O)C1Oc1ccc(C#N)c(C(F)(F)F)c1` (racemic) [Example 97, (±) 4-{1-Benzoyl-4,4-dimethyl-2-oxo-pyrrolidin-3-yloxy)-2-trifluoromethyl benzonitrile}] was 311 nM; that for `CC1(C)CN(Cc2ccc(S(C)(=O)=O)cc2)C(=O)C1Oc1ccc(C#N)c(C(F)(F)F)c1` (stereo not drawn) [Example 44, 4-[1-(4-Methanesulfonyl-benzyl)-4,4-dimethyl-2-oxo-pyrrolidin-3-yloxy]-2-trifluoromethyl-benzonitrile] was 346 nM.
Still for that read-out and setting: the value for `Cc1ccc(Cc2noc(CN3CC(C)(C)C(Oc4ccc(C#N)c(C(F)(F)F)c4)C3=O)n2)cc1` (stereo not drawn) [Example 43, 4-{4,4-Dimethyl-1-[3-(4-methyl-benzyl)-[1,2,4]oxadiazol-5-ylmethyl]-2-oxo-pyrrolidin-3-yloxy}-2-trifluoromethyl-benzonitrile] was 283 nM; that for `CC(C)S(=O)(=O)N1CC(C)(C)C(Oc2ccc(C#N)c(C(F)(F)F)c2)C1=O` (stereo not drawn) [Example 79, 4-[4,4-Dimethyl-2-oxo-1-(propane-2-sulfonyl)-pyrrolidin-3-yloxy]-2-trifluoromethyl-benzonitrile] was 305 nM; that for `Cc1noc(C)c1S(=O)(=O)N1CC(C)(C)C(Oc2ccc(C#N)c(C(F)(F)F)c2)C1=O` (stereo not drawn) [Example 76, 4-[1-(3,5-Dimethyl-isoxazole-4-sulfonyl)-4,4-dimethyl-2-oxo-pyrrolidin-3-yloxy]-2-trifluoromethyl-benzonitrile] was 430 nM.
On to `CCC(CC)C(=O)N1CC(C)(C)C(Oc2ccc(C#N)c(C(F)(F)F)c2)C1=O` (stereo not drawn) [Example 100E, 4-[1-(2-Ethyl-butyryl)-4,4-dimethyl-2-oxo-pyrrolidin-3-yloxy]-2-trifluoromethyl-benzonitrile], for which the IC50 is 372 nM.
As for `Cc1cc(S(=O)(=O)N2CC(C)(C)C(Oc3ccc(C#N)c(C(F)(F)F)c3)C2=O)c(C)s1` (stereo not drawn) [Example 92, 4-[1-(2,5-Dimethyl-thiophene-3-sulfonyl)-4,4-dimethyl-2-oxo-pyrrolidin-3-yloxy]-2-trifluoromethyl-benzonitrile], the IC50 worked out at 334 nM.
`Cc1cccc(-c2nnc(CN3CC(C)(C)C(Oc4ccc(C#N)c(C(F)(F)F)c4)C3=O)o2)c1` (stereo not drawn) [Example 122, 4-[4,4-Dimethyl-2-oxo-1-(5-m-tolyl-[1,3,4]oxadiazol-2-ylmethyl)-pyrrolidin-3-yloxy]-2-trifluoromethyl-benzonitrile]: the IC50 amounted to 271 nM.
Still for that read-out and setting: with `COc1ccccc1-c1nc(CN2CC(C)(C)C(Oc3ccc(C#N)c(C(F)(F)F)c3)C2=O)no1` (stereo not drawn) [Example 51, 4-{1-[5-(2-Methoxy-phenyl)-[1,2,4]oxadiazol-3-ylmethyl]-4,4-dimethyl-2-oxo-pyrrolidin-3-yloxy}-2-trifluoromethyl-benzonitrile] the figure was 321 nM; with `CC1(C)CN(Cc2nnc(-c3cccc(Cl)c3)o2)C(=O)C1Oc1ccc(C#N)c(C(F)(F)F)c1` (stereo not drawn) [Example 120, 4-{1-[5-(3-Chloro-phenyl)-[1,3,4]oxadiazol-2-ylmethyl]-4,4-dimethyl-2-oxo-pyrrolidin-3-yloxy}-2-trifluoromethyl-benzonitrile], 347 nM.
Still for that read-out and setting: the value for `Cc1ccccc1-c1nnc(CN2CC(C)(C)C(Oc3ccc(C#N)c(C(F)(F)F)c3)C2=O)o1` (stereo not drawn) [Example 111, 4-[4,4-Dimethyl-2-oxo-1-(5-o-tolyl-[1,3,4]oxadiazol-2-ylmethyl)-pyrrolidin-3-yloxy]-2-trifluoromethyl-benzonitrile] was 239 nM; that for `CC1(C)CN(Cc2nnc(-c3ccc(Cl)cc3)o2)C(=O)C1Oc1ccc(C#N)c(C(F)(F)F)c1` (stereo not drawn) [Example 125, 4-{1-[5-(4-Chloro-phenyl)-[1,3,4]oxadiazol-2-ylmethyl]-4,4-dimethyl-2-oxo-pyrrolidin-3-yloxy}-2-trifluoromethyl-benzonitrile] was 250 nM; that for `CCOc1cccc(-c2nnc(CN3CC(C)(C)C(Oc4ccc(C#N)c(C(F)(F)F)c4)C3=O)o2)c1` (stereo not drawn) [Example 124, 4-{1-[5-(3-Ethoxy-phenyl)-[1,3,4]oxadiazol-2-ylmethyl]-4,4-dimethyl-2-oxo-pyrrolidin-3-yloxy}-2-trifluoromethyl-benzonitrile] was 404 nM.
In the case of `Cc1ccc(S(=O)(=O)N2CC(C)(C)C(Oc3ccc(C#N)c(C(F)(F)F)c3)C2=O)s1` (stereo not drawn) [Example 85, 4-[4,4-Dimethyl-1-(5-methyl-thiophene-2-sulfonyl)-2-oxo-pyrrolidin-3-yloxy]-2-trifluoromethyl-benzonitrile], the IC50 amounted to 233 nM.
In the case of `Cc1noc(C)c1C(=O)N1CC(C)(C)C(Oc2ccc(C#N)c(C(F)(F)F)c2)C1=O` (stereo not drawn) [Example 106, 4-[1-(3,5-Dimethyl-isoxazole-4-carbonyl)-4,4-dimethyl-2-oxo-pyrrolidin-3-yloxy]-2-trifluoromethyl-benzonitrile], the IC50 worked out at 342 nM.
For `CCCC(=O)N1CC(C)(C)C(Oc2ccc(C#N)c(C(F)(F)F)c2)C1=O` (stereo not drawn) [Example 102, 4-(1-Butyryl-4,4-dimethyl-2-oxo-pyrrolidin-3-yloxy)-2-trifluoromethyl-benzonitrile], the IC50 stood at 418 nM.
`CC1(C)CN(Cc2cccc(C(F)(F)F)c2)C(=O)C1Oc1ccc(C#N)c(C(F)(F)F)c1` (stereo not drawn) [Example 34, 4-[4,4-Dimethyl-2-oxo-1-(3-trifluoromethyl-benzyl)-pyrrolidin-3-yloxy]-2-trifluoromethyl-benzonitrile]: the IC50 came to 437 nM.
